Assay results reported in patent US20140276355A1, “Co-administration of Light and a Therapeutic Agent to Stimulate Dysfunctional Mitochondria Affected By a Neurological Disorder” (MEDOS INTERNATIONAL SARL, priority 2013, published 2014).

Key:
Heixudian mutants = conditions: Drosophila Heixudian mutants; Vos et al., Science 2012; cited from earlier work
[1] = test system: Drosophila model for Parkinson disease; test: Flight assay in Drosophila model for Parkinson disease; type: in vivo
Procedure: Flight assays were conducted using male flies in batches of 5 flies each. Flies were placed in an empty vial (5 cm×10 cm), gently tapped and scored visually for their ability to fly. […] The combination of both treatments (e.g., Vitamin K2 and light) provided more than 50% restoration of the locomotor impairment.

Compound: CC(C)=CCC/C(C)=C/CC/C(C)=C/CC/C(C)=C/CC1=C(C)C(=O)c2ccccc2C1=O [Vitamin K2]
- severe mitochondria defects (Heixudian mutants): rescued
- restoration of the locomotor impairment (flight capacity) ([1]; combination of Vitamin K2 and light (808 nm continuous laser diode, 100 s, 25 mW/cm2)): more than 50%
- restored flight capability (animals able to fly) ([1]; systemic administration of Vitamin K2 alone, male flies, non-treated controls less than 15%): about 30%
